Molecular target: human NaV 1.7 (Homo sapiens, UniProt Q15858)
Experiment: E-VIPR optical membrane potential assay with electrical stimulation
Assay type: cell-based
Settings: sodium channel inhibition; read-out: Binned Activity Data (IC50)
Outline: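 Membrane-potential read-out: background-subtracted 460 nm/580 nm ratio during a 9 s current-controlled stimulus, 400 Hz scan. Before stimulation, NaV1.7-HEK cells carried coumarin/oxonol dye and compound (final DMSO 0.625%) for 20–35 min at room temperature; tetracaine 125 μM served as positive control.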

human NaV 1.7, sequence (Q15858 whole entry): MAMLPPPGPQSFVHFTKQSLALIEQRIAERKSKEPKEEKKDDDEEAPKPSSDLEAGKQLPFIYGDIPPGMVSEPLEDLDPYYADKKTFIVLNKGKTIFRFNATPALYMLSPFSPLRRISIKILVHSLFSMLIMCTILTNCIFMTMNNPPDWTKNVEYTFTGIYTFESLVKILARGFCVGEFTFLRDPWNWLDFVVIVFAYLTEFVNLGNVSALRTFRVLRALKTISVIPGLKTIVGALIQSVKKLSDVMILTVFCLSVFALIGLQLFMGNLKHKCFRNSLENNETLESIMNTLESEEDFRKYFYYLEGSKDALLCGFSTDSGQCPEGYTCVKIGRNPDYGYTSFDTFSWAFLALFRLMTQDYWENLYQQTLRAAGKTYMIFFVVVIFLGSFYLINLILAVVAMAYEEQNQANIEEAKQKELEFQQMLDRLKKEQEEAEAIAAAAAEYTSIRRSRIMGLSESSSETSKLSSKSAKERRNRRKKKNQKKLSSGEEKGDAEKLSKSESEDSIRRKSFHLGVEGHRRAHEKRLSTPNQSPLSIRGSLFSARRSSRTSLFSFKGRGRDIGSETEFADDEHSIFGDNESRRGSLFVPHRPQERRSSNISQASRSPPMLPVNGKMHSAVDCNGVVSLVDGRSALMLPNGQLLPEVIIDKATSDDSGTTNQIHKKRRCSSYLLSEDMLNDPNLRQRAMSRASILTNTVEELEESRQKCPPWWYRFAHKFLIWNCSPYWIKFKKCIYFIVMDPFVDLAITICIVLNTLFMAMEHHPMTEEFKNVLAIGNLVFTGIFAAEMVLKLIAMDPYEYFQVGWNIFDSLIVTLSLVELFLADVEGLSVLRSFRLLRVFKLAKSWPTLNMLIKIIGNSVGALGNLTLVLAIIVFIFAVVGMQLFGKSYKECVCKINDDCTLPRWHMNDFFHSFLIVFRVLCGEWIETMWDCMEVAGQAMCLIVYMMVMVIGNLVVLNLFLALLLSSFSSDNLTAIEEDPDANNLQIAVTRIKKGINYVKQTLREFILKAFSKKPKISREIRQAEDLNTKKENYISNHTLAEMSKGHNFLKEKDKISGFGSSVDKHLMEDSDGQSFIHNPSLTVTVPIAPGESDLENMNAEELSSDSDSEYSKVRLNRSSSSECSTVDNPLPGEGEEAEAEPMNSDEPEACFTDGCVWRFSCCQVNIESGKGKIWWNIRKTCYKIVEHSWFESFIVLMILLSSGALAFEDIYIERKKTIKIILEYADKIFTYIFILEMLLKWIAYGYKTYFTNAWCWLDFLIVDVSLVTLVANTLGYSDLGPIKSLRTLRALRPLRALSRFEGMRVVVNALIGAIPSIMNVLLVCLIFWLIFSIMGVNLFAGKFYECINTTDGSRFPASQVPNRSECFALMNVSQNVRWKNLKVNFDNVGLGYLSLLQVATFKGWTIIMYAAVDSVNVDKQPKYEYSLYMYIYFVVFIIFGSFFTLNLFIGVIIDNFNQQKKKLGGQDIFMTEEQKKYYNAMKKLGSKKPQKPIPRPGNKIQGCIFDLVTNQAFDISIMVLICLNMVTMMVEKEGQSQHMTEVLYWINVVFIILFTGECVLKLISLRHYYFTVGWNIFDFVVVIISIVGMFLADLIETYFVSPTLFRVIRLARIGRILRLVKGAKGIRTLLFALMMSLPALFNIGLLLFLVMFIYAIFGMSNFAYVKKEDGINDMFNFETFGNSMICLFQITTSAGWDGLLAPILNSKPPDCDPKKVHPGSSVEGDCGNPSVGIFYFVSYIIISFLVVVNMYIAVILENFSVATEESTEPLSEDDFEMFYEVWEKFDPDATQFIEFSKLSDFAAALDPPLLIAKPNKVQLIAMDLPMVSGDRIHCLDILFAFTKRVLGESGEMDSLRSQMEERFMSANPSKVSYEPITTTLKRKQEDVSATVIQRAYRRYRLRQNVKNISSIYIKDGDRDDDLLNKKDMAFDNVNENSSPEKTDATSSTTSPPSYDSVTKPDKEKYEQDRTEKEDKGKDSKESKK

Row | IC50 [nM] | Structure (SMILES)
1 | 2000 to 5000 | COc1ccc(C(=O)N2CCC3(CC2)Oc2ccccc2-c2c3cnn2C)cc1Cl [Compound 227]
2 | ≤ 2000 | COc1cc(C(=O)N2CCC3(CC2)Oc2cc(F)ccc2-n2cccc23)ccc1OC[C@H]1COC(C)(C)O1 [Compound 228]
3 | ≤ 2000 | Cn1cc2c(n1)-c1ccccc1OC21CCN(C(=O)c2ccc(C(C)(C)O)cc2)CC1 [Compound 230]
4 | > 5000 | C[C@](O)(CO)c1ccc(C(=O)N2CCC3(CC2)Oc2ccccc2-n2c(C(F)(F)F)ccc23)cc1 [Compound 231]
5 | 2000 to 5000 | CC(C)N(C)S(=O)(=O)c1ccc(C(=O)N2CCC3(CC2)Oc2ccccc2-c2c3cnn2C)cc1 [Compound 233]
6 | ≤ 2000 | CC(=O)c1ccc2n1-c1ccccc1OC21CCN(C(=O)c2ccc(S(=O)(=O)NC3CC3)cc2)CC1 [Compound 235]
7 | > 5000 | COc1ccc(C)cc1C(=O)N1CCC2(CC1)Oc1ccccc1-c1c2cnn1C [Compound 236]
8 | ≤ 2000 | COC[C@@H](C)Oc1ccc(C(=O)N2CCC3(CC2)Oc2ccccc2-n2cccc23)cc1C(F)(F)F [Compound 237]
9 | ≤ 2000 | COCCCOc1ccc(C(=O)N2CCC3(CC2)Oc2cc(Cl)ccc2-n2cccc23)cc1C(F)(F)F [Compound 238]
10 | ≤ 2000 | CCc1ccc(C(=O)N2CCC3(CC2)Oc2ccccc2-n2cccc23)cc1OC [Compound 239]
11 | 2000 to 5000 | COc1cc(OC)c(C(=O)N2CCC3(CC2)Oc2ccccc2-c2nn(C)cc23)cc1OC [Compound 240]
12 | > 5000 | O=C(c1ccccc1)N1CCC2(CC1)Oc1ccccc1-n1cccc12 [Compound 241]
13 | > 5000 | Cn1ncc2c1-c1ccccc1OC21CCN(C(=O)c2cccc(F)c2F)CC1 [Compound 242]
14 | ≤ 2000 | Cn1ncc2c1-c1ccccc1OC21CCN(C(=O)c2ccc(S(=O)(=O)NC3CC3)cc2)CC1 [Compound 243]
15 | 2000 to 5000 | CNC(=O)c1ccc2n1-c1ccc(Cl)cc1OC21CCN(C(=O)c2ccc(OC(C)C)c(C)c2)CC1 [Compound 245]
16 | ≤ 2000 | CC(C)Oc1ccc(C(=O)N2CCC3(CC2)Oc2ccccc2-c2nn(C)cc23)c(F)c1 [Compound 246]
17 | ≤ 2000 | COc1cc(C(=O)N2CCC3(CC2)Oc2ccccc2-n2cccc23)ccc1OC(C)C [Compound 247]
18 | ≤ 2000 | COc1ccc(C(=O)N2CCC3(CC2)Oc2cc(F)ccc2-n2cccc23)cc1C(F)(F)F [Compound 249]
19 | 2000 to 5000 | Cn1ccc(C(=O)N2CCC3(CC2)Oc2cc(Cl)ccc2-n2c(C(F)(F)F)ccc23)cc1=O [Compound 250]
20 | ≤ 2000 | CCc1ccc(C(=O)N2CCC3(CC2)Oc2ccccc2-c2c3cnn2C)cc1OC [Compound 251]
21 | 2000 to 5000 | Cc1c(C(=O)N2CCC3(CC2)Oc2ccccc2-c2c3cnn2C)cnn1-c1ccccc1 [Compound 252]
22 | ≤ 2000 | CCn1ncc2c1-c1ccccc1OC21CCN(C(=O)c2ccc(S(=O)(=O)C(C)C)cc2)CC1 [Compound 253]
23 | ≤ 2000 | Cc1cc(C(=O)N2CCC3(CC2)Oc2ncccc2-n2nccc23)ccc1OC(C)C [Compound 255]
24 | ≤ 2000 | COc1cc(C(=O)N2CCC3(CC2)Oc2ccccc2-c2c3cnn2C)ccc1OC(C)C [Compound 256]
25 | ≤ 2000 | CCc1ccc(C(=O)N2CCC3(CC2)Oc2ccccc2-c2sc(C)nc23)cc1OC [Compound 257]
26 | ≤ 2000 | Cn1ncc2c1-c1ccc(F)cc1OC21CCN(C(=O)c2ccccc2OC(F)F)CC1 [Compound 258]

Row | IC50 [nM] | Structure (SMILES)
27 | ≤ 2000 | COc1cccc(C)c1C(=O)N1CCC2(CC1)Oc1ccccc1-c1c2cnn1C [Compound 259]
28 | 2000 to 5000 | CC(C)S(=O)(=O)c1ccc(C(=O)N2CCC3(CC2)Oc2ccccc2-n2c(C(F)F)ccc23)cc1 [Compound 260]
29 | ≤ 2000 | Cc1nc(C(=O)N2CCC3(CC2)Oc2ccccc2-c2nn(C)cc23)ccc1OC(C)C [Compound 262]
30 | ≤ 2000 | O=C(c1ccc(O[C@H]2CCOC2)c(C(F)(F)F)c1)N1CCC2(CC1)Oc1ccccc1-n1cccc12 [Compound 263]
31 | ≤ 2000 | CC(C)(C)c1ccc(C(=O)N2CCC3(CC2)Oc2ccccc2-n2c3ccc2S(C)(=O)=O)cc1 [Compound 265]
32 | ≤ 2000 | CCn1ncc2c1-c1cc(F)ccc1OC21CCN(C(=O)c2ccc(OC(C)C)c(C)c2)CC1 [Compound 267]
33 | ≤ 2000 | CCCOc1ccc(C(=O)N2CCC3(CC2)Oc2cc(Cl)ccc2-n2cccc23)cc1C(F)(F)F [Compound 269]
34 | ≤ 2000 | O=C(c1ccc(S(=O)(=O)C2CC2)cc1)N1CCC2(CC1)Oc1ccccc1-n1c(C(F)(F)F)ccc12 [Compound 270]
35 | > 5000 | Cc1cc(C(=O)N2CCC3(CC2)Oc2cccnc2-c2c3cnn2C)ccc1OC(C)C [Compound 271]
36 | > 5000 | N#Cc1cccc(C(=O)N2CCC3(CC2)Oc2cc(Cl)ccc2-n2cccc23)c1 [Compound 272]
37 | ≤ 2000 | Cc1cc(C(=O)N2CCC3(CC2)Oc2ccccc2-c2c3c(C)nn2C)ccc1OC(C)C [Compound 274]
38 | ≤ 2000 | CC(C)Oc1ccc(C(=O)N2CCC3(CC2)Oc2ccccc2-c2nn(C)cc23)cc1CO [Compound 276]
39 | ≤ 2000 | O=C(c1cc(Cl)cc(Cl)c1)N1CCC2(CC1)Oc1cc(Cl)ccc1-n1cccc12 [Compound 277]
40 | ≤ 2000 | COc1cc(C(=O)N2CCC3(CC2)Oc2ccccc2-c2nn(C)cc23)ccc1OC(C)C [Compound 281]
41 | ≤ 2000 | CC(C)Oc1ccc(C(=O)N2CCC3(CC2)Oc2ccccc2-n2c3ccc2S(C)(=O)=O)cc1F [Compound 282]
42 | ≤ 2000 | Cn1ncc2c1-c1cc(Cl)ccc1OC21CCN(C(=O)c2ccccc2OC(F)F)CC1 [Compound 283]
43 | ≤ 2000 | Cn1cc2c(n1)-c1ccccc1OC21CCN(C(=O)c2ccc(OC(F)F)cc2)CC1 [Compound 284]
44 | ≤ 2000 | N#Cc1ccc2n1-c1ccccc1OC21CCN(C(=O)c2ccccc2OC(F)F)CC1 [Compound 285]
45 | ≤ 2000 | CC(C)Oc1ccc(C(=O)N2CCC3(CC2)Oc2ccccc2-n2c([S+](C)[O-])ccc23)cc1CO (stereo not shown) [Compound 286]
46 | ≤ 2000 | COc1cc(C(=O)N2CCC3(CC2)Oc2cc(Cl)ccc2-n2cccc23)ccc1C1(O)COC1 [Compound 287]
47 | ≤ 2000 | COc1ccc2c(c1)OC1(CCN(C(=O)c3ccc(OC(C)C)c(C)c3)CC1)c1cnn(C)c1-2 [Compound 289]
48 | ≤ 2000 | Cn1ncc2c1-c1ccccc1OC21CCN(C(=O)c2cccc3c2OCC3)CC1 [Compound 290]
49 | ≤ 2000 | COc1cc(C(=O)N2CCC3(CC2)Oc2cc(Cl)ccc2-n2cccc23)ccc1OCCOC(F)(F)F [Compound 291]
50 | ≤ 2000 | Cn1ncc2c1-c1ccccc1OC21CCN(C(=O)c2ccccc2OC2CCOCC2)CC1 [Compound 292]
51 | ≤ 2000 | N#Cc1ccc2n1-c1ccccc1OC21CCN(C(=O)c2ccc(OC[C@@H](O)CO)cc2)CC1 [Compound 293]
52 | ≤ 2000 | CC(C)(C)c1ccc(C(=O)N2CCC3(CC2)Oc2ccccc2-n2c(C#N)ccc23)cc1 [Compound 295]

Row | IC50 [nM] | Structure (SMILES)
53 | ≤ 2000 | CC(C)Oc1ccc(C(=O)N2CCC3(CC2)Oc2ccccc2-n2c3ccc2S(C)(=O)=O)cc1CO [Compound 296]
54 | ≤ 2000 | CC(C)S(=O)(=O)c1ccc(C(=O)N2CCC3(CC2)Oc2ccccc2-n2c(C#N)ccc23)cc1 [Compound 297]
55 | ≤ 2000 | COCCOc1ccc(C(=O)N2CCC3(CC2)Oc2ccccc2-c2c3ccn2C)cc1OC [Compound 298]
56 | > 5000 | COc1cccc(Cl)c1C(=O)N1CCC2(CC1)Oc1ccccc1-c1c2cnn1C [Compound 299]
57 | ≤ 2000 | COc1ccc(C(=O)N2CCC3(CC2)Oc2cc(Cl)ccc2-n2c(CO)ccc23)cc1C(F)(F)F [Compound 300]
58 | ≤ 2000 | COC[C@@H](C)Oc1ccc(C(=O)N2CCC3(CC2)Oc2cc(F)ccc2-n2cccc23)cc1OC [Compound 303]
59 | ≤ 2000 | N#Cc1cc(F)cc(C(=O)N2CCC3(CC2)Oc2cc(Cl)ccc2-n2cccc23)c1 [Compound 304]
60 | ≤ 2000 | COCCOc1ccc(C(=O)N2CCC3(CC2)Oc2cc(F)ccc2-n2cccc23)cc1OC [Compound 305]
61 | ≤ 2000 | CC(C)Oc1ccc(C(=O)N2CCC3(CC2)Oc2ccccc2-c2c3cnn2C)cc1C#N [Compound 306]
62 | ≤ 2000 | COc1cc(C(=O)N2CCC3(CC2)Oc2ccccc2-c2nn(C)cc23)ccc1OC(C)(C)C [Compound 307]
63 | ≤ 2000 | CC(C)(O)Cc1ccc(C(=O)N2CCC3(CC2)Oc2ccccc2-n2c(C#N)ccc23)cc1 [Compound 308]
64 | > 5000 | Cn1ncc2c1-c1cc(F)ccc1OC21CCN(C(=O)c2ccccc2C(F)F)CC1 [Compound 309]
65 | ≤ 2000 | CC(C)Oc1ccc(C(=O)N2CCC3(CC2)Oc2ccccc2-n2c(C#N)ccc23)c(CO)c1 [Compound 310]
66 | ≤ 2000 | CC(=O)c1ccc2n1-c1ccccc1OC21CCN(C(=O)c2ccc(S(=O)(=O)C(C)(C)C)cc2)CC1 [Compound 311]
67 | ≤ 2000 | COCCOc1cc(F)c(C(=O)N2CCC3(CC2)Oc2cc(F)ccc2-n2cccc23)cc1OC [Compound 312]
68 | ≤ 2000 | COc1cc(C(=O)N2CCC3(CC2)Oc2ccccc2-c2c3cnn2C)ccc1OC(C)(C)C [Compound 313]
69 | ≤ 2000 | CCc1ccc(C(=O)N2CCC3(CC2)Oc2ccccc2-n2ccc(C)c23)cc1OC [Compound 314]
70 | ≤ 2000 | Cc1cc(C(=O)N2CCC3(CC2)Oc2ccccc2-n2ccc(C)c23)ccc1OC(C)C [Compound 315]
71 | ≤ 2000 | COc1cc(C(=O)N2CCC3(CC2)Oc2ccccc2-n2ccnc23)ccc1OC(C)C [Compound 316]
72 | > 5000 | Cn1ncc2c1-c1ccccc1OC21CCN(C(=O)c2cc3ccccc3n2C)CC1 [Compound 317]
73 | ≤ 2000 | CC(C)Oc1ccc(C(=O)N2CCC3(CC2)Oc2ccccc2-n2c(C#N)ccc23)c(F)c1 [Compound 318]
74 | 2000 to 5000 | Cn1ncc2c1-c1ccccc1OC21CCN(C(=O)c2ccccc2NS(C)(=O)=O)CC1 [Compound 319]
75 | ≤ 2000 | CCn1ncc2c1-c1ccccc1OC21CCN(C(=O)c2ccccc2OC(F)(F)F)CC1 [Compound 321]
76 | 2000 to 5000 | Cn1ncc2c1-c1ccccc1OC21CCN(C(=O)c2ccnc3ccccc23)CC1 [Compound 322]

Source: patent publication US9365588B2, “Benzoxazines as modulators of ion channels” (Vertex Pharmaceuticals Incorporated, priority 2011, dated 2016)
